Experimental data published in PMC12298827, “Subchronic Toxicities of Four Per- and Polyfluoroalkyl Substances (PFASs) by Oral Exposure in Sprague–Dawley Rats” (Toxics, 2025).

Tested on: male and female Sprague–Dawley rats
Assay: 90-day subchronic oral gavage toxicity study
Format: in vivo, rat
Set-up: key to NOEL, absolute liver weight increase / LOEL, absolute liver weight increase / NOEL, relative kidney weight increase / LOEL, relative kidney weight increase / NOEL, absolute kidney weight increase / LOEL, absolute kidney weight increase / NOEL, relative liver weight increase / LOEL, relative liver weight increase: NR: no response, no statistically significant dose-dependent changes
Protocol: Subchronic (90-day) studies were performed in accordance with current U.S. EPA’s Toxic Substances Control Act Good Laboratory Practice (GLP) Standards, with the following two general exceptions to the GLP guidelines: Analysis of the dose formulations was conducted according to RTI-approved Standard Operating Procedures, and corn oil (the vehicle) was not characterized (certificate of analysis from the vendor is available in the appendices to the final reports). Male and female Sprague–Dawley rats (five dose levels plus a control, n = 10/sex/dose group, corn oil vehicle dose volume of 3 mL/kg; oral gavage) were used in these studies, and the rats were euthanized on SD 91. The dose levels for PFHI were 0, 12.5, 25, 50, 100, and 200 mg/kg-day. The dose levels for MHFPK were 0, 18.8, 37.5, 75, 150, and 300 mg/kg-day. The dose levels for PFNAC were 0, 0.1, 0.3, 1.0, 3.0, and 10 mg/kg-day for male rats and 0, 0.3, 1.0, 3.0, 10, and 30 mg/kg-day for female rats. For CTFPA, the dose levels were 0, 1.9, 3.8. 7.5, 15, and 30 mg/kg-day for male rats and 0, 6.3, 12.5, 25, 50, and 100 mg/kg-day for female rats. For each PFAS, three batches of dosing solution were prepared. The time between the batch preparation of the dosing solutions ranged between 29 and 39 days. Blood samples were collected from all the rats at termination for serum chemistry, hematology, coagulation, and the analysis of the parent PFAS chemical in the plasma. In vivo data collection and further detail on the endpoints examined postmortem are described below.
The rats were observed twice daily for morbidity and mortality throughout the study period. At least once prior to randomization to test groups and weekly thereafter, the rats were physically examined, and bodyweights were obtained. Feed consumption was quantified weekly starting on SD 1.
Neurotoxicity was evaluated using the functional observational battery (FOB) and measuring locomotor activity (LMA) 2–4 h post dosing on SDs 78–80 and 80–84, respectively. For both the 14- and 90-day studies, an ophthalmologic examination was conducted prior to randomization and near the end of the study, using indirect ophthalmoscopy and slit–lamp biomicroscopy (as needed) after the administration of a mydriatic solution.
Hematology, biochemistry, and coagulation endpoints were measured at the termination of the study. A Siemens Advia 2120i hematology analyzer (Siemens Healthineers, Erlangen, Germany) was used to measure (or calculate) the parameters related to the complete blood count, leukocyte differential count, and reticulocyte count. The hematology parameters are listed and described in Table 2. The prothrombin time […] and activated partial thromboplastin time (APTT) were measured using an Instrumentation Laboratory (Bedford, MA, USA) ACL Elite Pro coagulation analyzer (laser–nephelometric centrifugal method).
At necropsy, the rats were visually examined for external abnormalities and organ weights (absolute and relative to the BW and brain weight), which were recorded (paired organs weighed together). The tissues were preserved in 10% neutral buffered formalin (NBF), except for the ocular tissues, testes, and epididymides, which were preserved in modified Davidson’s fixative and later transferred to 10% NBF. Bone marrow smears were prepared from the femurs, and the slides were air-dried, fixed in methanol, stained, and stored at room temperature for possible future evaluation. The preserved tissues were embedded in paraffin, sectioned, stained with hematoxylin and eosin, and examined by a board-certified veterinary pathologist.
Statistical analysis was performed using Provantis™ Version 10 or greater (Instem LSS, Limited; Stone, Staffordshire, UK). Differences among the treatment groups compared to the control were evaluated using one-way analysis of variance (ANOVA) if the underlying assumptions of a normal distribution (Shapiro–Wilk test) and the homogeneity of the variance (Levene’s test) were satisfied. […]

O=C(O)C(F)(Cl)C(F)(F)F (centres unmarked) [CTFPA, 2-Chloro-2,3,3,3-tetrafluoropropanoic acid]
Liver Weight (female, 100 mg/kg-day): 11.31 g
Liver/Body Weight (female, 100 mg/kg-day): 3.57%
Liver/Brain Weight (female, 100 mg/kg-day): 575%
MPV (female, 100 mg/kg-day): 8.01 ± 0.50 fL
PT (female, 100 mg/kg-day): 14.22 s
Total BW change (female, 100 mg/kg-day): 107.34 g
Total Food Consumed (female, 100 mg/kg-day): 1615 g
BMDL, absolute liver weight increase (male): 11.6 mg/kg-day
LOEL, absolute kidney weight increase (male): NR
LOEL, absolute liver weight increase (male): 7.5 mg/kg-day
LOEL, relative kidney weight increase (male): NR
LOEL, relative liver weight increase (male): 3.8 mg/kg-day
NOEL, absolute kidney weight increase (male): NR
NOEL, absolute liver weight increase (male): 3.8 mg/kg-day
NOEL, relative kidney weight increase (male): NR
NOEL, relative liver weight increase (male): 1.9 mg/kg-day
% BW Gain (male, 1.9 mg/kg-day): 125.06%
% Diff, % BW Gain (male, 1.9 mg/kg-day): -0.26%
% Diff, Total BW change (male, 1.9 mg/kg-day): -0.03%
% Diff, Total Food Consumed (male, 1.9 mg/kg-day): 0.81%
A/G (male, 1.9 mg/kg-day): 0.95±0.07 ratio
ALB (male, 1.9 mg/kg-day): 3.35 ± 0.17 g/dL
ALPi (male, 1.9 mg/kg-day): 139.8±40.4 U/L
APTT (male, 1.9 mg/kg-day): 18.83 s
BUN (male, 1.9 mg/kg-day): 14.8 ± 1.8 mg/dL
CHOL (male, 1.9 mg/kg-day): 84.4 ± 9.8 mg/dL
GLOB (male, 1.9 mg/kg-day): 3.52 ± 0.20 g/dL
GLUC (male, 1.9 mg/kg-day): 170.1 ± 32.6 mg/dL
HCT (male, 1.9 mg/kg-day): 50.28±1.93%
HGB (male, 1.9 mg/kg-day): 15.58 ± 0.65 g/dL
Kidney Weight (male, 1.9 mg/kg-day): 3.12 g
Kidney/Body Weight (male, 1.9 mg/kg-day): 0.56%
Kidney/Brain Weight (male, 1.9 mg/kg-day): 150%
Liver Weight (male, 1.9 mg/kg-day): 14.47 g
Liver/Body Weight (male, 1.9 mg/kg-day): 2.58%
Liver/Brain Weight (male, 1.9 mg/kg-day): 697%
MPV (male, 1.9 mg/kg-day): 7.50 ± 0.37 fL
PT (male, 1.9 mg/kg-day): 15.55 s
Total BW change (male, 1.9 mg/kg-day): 316.63 g
Total Food Consumed (male, 1.9 mg/kg-day): 2084 g
% BW Gain (male, 3.8 mg/kg-day): 137.76%
% Diff, % BW Gain (male, 3.8 mg/kg-day): 9.87%
% Diff, Total BW change (male, 3.8 mg/kg-day): 11.95%
% Diff, Total Food Consumed (male, 3.8 mg/kg-day): 9.08%
A/G (male, 3.8 mg/kg-day): 0.93±0.20 ratio
ALB (male, 3.8 mg/kg-day): 3.29 ± 0.48 g/dL
ALPi (male, 3.8 mg/kg-day): 131.8±40.1 U/L
APTT (male, 3.8 mg/kg-day): 16.21 s
BUN (male, 3.8 mg/kg-day): 15.6 ± 2.5 mg/dL
CHOL (male, 3.8 mg/kg-day): 79.3 ± 17.3 mg/dL
GLOB (male, 3.8 mg/kg-day): 3.65 ± 0.66 g/dL
GLUC (male, 3.8 mg/kg-day): 173.7 ± 32.5 mg/dL
HCT (male, 3.8 mg/kg-day): 49.12±2.10%
HGB (male, 3.8 mg/kg-day): 15.20 ± 0.71 g/dL
Kidney Weight (male, 3.8 mg/kg-day): 3.35 g
Kidney/Body Weight (male, 3.8 mg/kg-day): 0.56%
Kidney/Brain Weight (male, 3.8 mg/kg-day): 152%
Liver Weight (male, 3.8 mg/kg-day): 17.18 g
Liver/Body Weight (male, 3.8 mg/kg-day): 2.85%
Liver/Brain Weight (male, 3.8 mg/kg-day): 780%
MPV (male, 3.8 mg/kg-day): 7.79 ± 0.46 fL
PT (male, 3.8 mg/kg-day): 15.25 s
Total BW change (male, 3.8 mg/kg-day): 354.57 g
Total Food Consumed (male, 3.8 mg/kg-day): 2255 g
% BW Gain (male, 7.5 mg/kg-day): 145.16%
% Diff, % BW Gain (male, 7.5 mg/kg-day): 15.76%
% Diff, Total BW change (male, 7.5 mg/kg-day): 18.72%
% Diff, Total Food Consumed (male, 7.5 mg/kg-day): 13.5%
A/G (male, 7.5 mg/kg-day): 1.05±0.14 ratio
ALB (male, 7.5 mg/kg-day): 3.39 ± 0.32 g/dL
ALPi (male, 7.5 mg/kg-day): 159.9±63.1 U/L
APTT (male, 7.5 mg/kg-day): 14.52 s
BUN (male, 7.5 mg/kg-day): 15.5 ± 2.2 mg/dL
CHOL (male, 7.5 mg/kg-day): 74.2 ± 8.5 mg/dL
GLOB (male, 7.5 mg/kg-day): 3.24 ± 0.19 g/dL
GLUC (male, 7.5 mg/kg-day): 165.6 ± 25.1 mg/dL
HCT (male, 7.5 mg/kg-day): 47.49±2.30%
HGB (male, 7.5 mg/kg-day): 14.52 ± 0.72 g/dL
Kidney Weight (male, 7.5 mg/kg-day): 3.47 g
Kidney/Body Weight (male, 7.5 mg/kg-day): 0.56%
Kidney/Brain Weight (male, 7.5 mg/kg-day): 159%
Liver Weight (male, 7.5 mg/kg-day): 20.01 g
Liver/Body Weight (male, 7.5 mg/kg-day): 3.24%
Liver/Brain Weight (male, 7.5 mg/kg-day): 912%
MPV (male, 7.5 mg/kg-day): 7.61 ± 0.38 fL
PT (male, 7.5 mg/kg-day): 15.14 s
Total BW change (male, 7.5 mg/kg-day): 376.00 g
Total Food Consumed (male, 7.5 mg/kg-day): 2345 g
% BW Gain (male, 15 mg/kg-day): 135.14%
% Diff, % BW Gain (male, 15 mg/kg-day): 7.78%
% Diff, Total BW change (male, 15 mg/kg-day): 8.09%
% Diff, Total Food Consumed (male, 15 mg/kg-day): 14.6%
A/G (male, 15 mg/kg-day): 1.16±0.11 ratio
ALB (male, 15 mg/kg-day): 3.56 ± 0.21 g/dL
ALPi (male, 15 mg/kg-day): 237.6±66.2 U/L
APTT (male, 15 mg/kg-day): 12.89 s
BUN (male, 15 mg/kg-day): 15.8 ± 2.4 mg/dL
CHOL (male, 15 mg/kg-day): 63.6 ± 10.8 mg/dL
GLOB (male, 15 mg/kg-day): 3.07 ± 0.19 g/dL
GLUC (male, 15 mg/kg-day): 175.2 ± 15.8 mg/dL
HCT (male, 15 mg/kg-day): 47.72±2.58%
HGB (male, 15 mg/kg-day): 14.62 ± 0.84 g/dL
Kidney Weight (male, 15 mg/kg-day): 3.40 g
Kidney/Body Weight (male, 15 mg/kg-day): 0.58%
Kidney/Brain Weight (male, 15 mg/kg-day): 147%
Liver Weight (male, 15 mg/kg-day): 20.28 g
Liver/Body Weight (male, 15 mg/kg-day): 3.47%
Liver/Brain Weight (male, 15 mg/kg-day): 873%
MPV (male, 15 mg/kg-day): 7.56 ± 0.43 fL
PT (male, 15 mg/kg-day): 15.24 s
Total BW change (male, 15 mg/kg-day): 342.33 g
Total Food Consumed (male, 15 mg/kg-day): 2368 g
% BW Gain (male, 30 mg/kg-day): 121.40%
% Diff, % BW Gain (male, 30 mg/kg-day): -3.18%
% Diff, Total BW change (male, 30 mg/kg-day): -0.72%
% Diff, Total Food Consumed (male, 30 mg/kg-day): 10.33%
A/G (male, 30 mg/kg-day): 1.19±0.12 ratio
ALB (male, 30 mg/kg-day): 3.72 ± 0.22 g/dL
ALPi (male, 30 mg/kg-day): 282.9±80.3 U/L
APTT (male, 30 mg/kg-day): 12.13 s
Absolute and relative thymus weights (male, 30 mg/kg-day): significantly increased
BUN (male, 30 mg/kg-day): 18.7 ± 2.7 mg/dL
CHOL (male, 30 mg/kg-day): 68.5 ± 10.0 mg/dL
GLOB (male, 30 mg/kg-day): 3.14 ± 0.22 g/dL
GLUC (male, 30 mg/kg-day): 175.3 ± 23.2 mg/dL
HCT (male, 30 mg/kg-day): 47.32±2.15%
HGB (male, 30 mg/kg-day): 14.44 ± 0.69 g/dL
Kidney Weight (male, 30 mg/kg-day): 3.35 g
Kidney/Body Weight (male, 30 mg/kg-day): 0.60%
Kidney/Brain Weight (male, 30 mg/kg-day): 148%
Liver Weight (male, 30 mg/kg-day): 21.52 g
Liver/Body Weight (male, 30 mg/kg-day): 3.82%
Liver/Brain Weight (male, 30 mg/kg-day): 954%
MPV (male, 30 mg/kg-day): 7.54 ± 0.47 fL
PT (male, 30 mg/kg-day): 15.74 s
Total BW change (male, 30 mg/kg-day): 314.42 g
Total Food Consumed (male, 30 mg/kg-day): 2281 g
